Results from ChEMBL document CHEMBL1201862, “PubChem BioAssay data set” (2004).
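Test compounds were applied to cells in 96-well plates for 48 hours at 5 doses. GI50 is the concentration that inhibits growth by half.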 Active and inactive are the calls of the source. Rule as the data show it: active = GI50 up to about 1.1 µM and inactive = higher.

How the values were obtained:
Assay in all cases: NCI tumour cell line growth inhibition, 48 h
DMS-273 = tested on: DMS-273
RXF 631 = tested on: RXF 631
DLD-1 = tested on: DLD-1
DMS-114 = tested on: DMS-114
XF498 = tested on: XF498
M19-MEL = tested on: M19-MEL
SNB-78 = tested on: SNB-78
MDA-N = tested on: MDA-N
KM-20L2 = tested on: KM-20L2

Measured: GI50

Cn1c(=O)nc2n(-c3ccc(Cl)cc3)c3cc(Cl)ccc3nc-2c1=O
inactive: DMS-273 3.56 µM | RXF 631 1.97 µM | DLD-1 1.79 µM | DMS-114 1.78 µM | XF498 1.41 µM | M19-MEL 1.75 µM | SNB-78 > 37.9 µM | MDA-N 1.48 µM | KM-20L2 3.44 µM

CCN(CC)Cc1cc(Nc2c3ccccc3nc3c4ccccc4n(C)c23)ccc1O
inactive: DMS-273 5.64 µM | RXF 631 3.18 µM | DLD-1 6.76 µM | DMS-114 6.37 µM | XF498 4.84 µM | M19-MEL 7.85 µM | SNB-78 18.6 µM | KM-20L2 5.45 µM

NC(=O)COC(=O)c1c(Cl)nc2sccn12
inactive: DMS-273 81.7 µM | RXF 631 > 100 µM | DLD-1 > 100 µM | DMS-114 > 52.1 µM | XF498 > 100 µM | M19-MEL > 84.3 µM | SNB-78 > 100 µM | KM-20L2 > 100 µM

CC(C)(C)C1=CC(=NNC(=S)NCc2ccccc2)C=C(C(C)(C)C)C1=O
inactive: DMS-273 > 100 µM | RXF 631 > 100 µM | DLD-1 59.6 µM | DMS-114 54.8 µM | XF498 > 100 µM | M19-MEL 98.4 µM | KM-20L2 > 100 µM

COC(=O)C(C(=O)C(=O)Nc1ccc(Br)cc1)c1nc2ccc(Cl)cc2nc1O (configuration not stated)
inactive: DMS-273 > 70.6 µM | RXF 631 > 100 µM | DLD-1 > 100 µM | DMS-114 > 80 µM | XF498 > 100 µM | M19-MEL > 100 µM | SNB-78 > 100 µM | KM-20L2 > 100 µM

COc1ccc(Br)c(N/N=C2\CCCNC2=O)c1
inactive: DMS-273 > 100 µM | RXF 631 > 100 µM | DLD-1 > 100 µM | DMS-114 90.8 µM | XF498 69.2 µM | M19-MEL > 100 µM | SNB-78 > 100 µM | KM-20L2 > 100 µM

COc1ccc2oc3cccc(NCCN(C)C)c3c(=O)c2c1
inactive: DMS-273 12.1 µM | RXF 631 13.7 µM | DLD-1 13.1 µM | DMS-114 12.9 µM | XF498 14.5 µM | M19-MEL 15.3 µM | SNB-78 17.7 µM | KM-20L2 9.14 µM

C[C@]12CCC[C@H](O)[C@H]1C[C@H](CO)CC2
inactive: DMS-273 > 100 µM | RXF 631 > 100 µM | DLD-1 > 100 µM | XF498 > 100 µM | M19-MEL > 100 µM | KM-20L2 > 100 µM

C=CCc1cc2cccc(OC)c2oc1=O
inactive: DMS-273 > 100 µM | RXF 631 > 100 µM | DLD-1 > 100 µM | DMS-114 80.5 µM | XF498 7.24 µM | M19-MEL > 100 µM | SNB-78 > 100 µM | KM-20L2 > 100 µM

CCOC(=O)C1=C(NC(C)(C)C)OCC1=O
inactive: RXF 631 > 100 µM | DLD-1 > 100 µM | XF498 > 100 µM | SNB-78 > 100 µM | KM-20L2 > 100 µM

CC1(C)SCc2nc3ncccc3n21
inactive: RXF 631 > 100 µM | DLD-1 > 100 µM | DMS-114 > 100 µM | XF498 > 100 µM | M19-MEL > 100 µM | SNB-78 > 100 µM | KM-20L2 > 100 µM

O=C1CCC2(c3ccccc3)Nc3ccccc3N12 (configuration not stated)
inactive: RXF 631 > 100 µM | DLD-1 > 100 µM | DMS-114 > 100 µM | XF498 > 100 µM | M19-MEL > 100 µM | SNB-78 > 100 µM | KM-20L2 > 100 µM

CCOC(OCC)C(CC)[Se]c1ccccc1 (configuration not stated)
inactive: DMS-273 14.1 µM | RXF 631 8.49 µM | DLD-1 > 100 µM | DMS-114 2.82 µM | XF498 > 100 µM | M19-MEL 19.3 µM | SNB-78 64.3 µM | KM-20L2 19.5 µM
